Where two headings read alike, the source gives them in different places. Residues, ends and D or L forms follow the SMILES beside them. *: point of attachment. Cbz = O=C(OCc1ccccc1)*
Tests used:
[1] = system: MKP3; conditions: cited from earlier work
[2] = system: DUSP1; conditions: cited from earlier work
[3] = system: mCherry-EGFP-Y151TetF; assay: Degradation mechanism: proteasome inhibitor pre-treatment; format: cell-based; conditions: 10 μM inhibitor, 4 h pre-incubation; then 10 μM sTCO-PEG2-CRBN overnight
Description: FIGS. 16A-16B. Degradation mechanism of sTCO-PEG2-CRBN. FIG. 16A) The degradation of mCherry-EGFP-Y151TetF was reduced when cells were pre-treated with proteasome inhibitor MG132 or epoxomicin, validating that sTCO-PEG2-CRBN induced degradation is mediated by the proteasome.
For mechanistic insight into sTCO-PEG2-CRBN degradation (FIG. 16) cells were transfected as described above. A 10 μM working solution of media containing either MG132 or epoxomicin was made by adding 1 μL of the respective proteasome inhibitor (10 mM in DMSO) into 999 μL of complete medium. Following removal of TetF, 200 μL of media supplemented with either MG132, epoxomicin, or DMSO was added to each well and the cells were incubated for 4 h. Next, a solution containing 50 μM of sTCO-PEG2-CRBN was made by adding 5 μL of sTCO-PEG2-CRBN (10 mM in DMSO) into 995 μL of complete medium. Following the allotted time for proteasome inhibitor incubation, 50 μL of 50 μM sTCO-PEG2-CRBN was added directly to each well, for a final volume of 250 μL and final concentration of 10 μM of sTCO-PEG2-CRBN. The cells were then incubated overnight at 37° C. with 5% CO2 before lysis and western blot analysis.

[4] = system: mCherry-EGFP-Y151TetF; assay: Degradation mechanism: thalidomide-OH pretreatment, cereblon-mediated degradation; format: cell-based; conditions: pretreatment with 100 µM of Thal-OH, then sTCO-PEG2-CRBN
[5] = cited from earlier work
[6] = system: mCherry-EGFP-I129TetF; assay: In cellulo bioconjugation quantified with sTCO-CA and HaloTag; format: cell-based; conditions: sTCO-CA then HaloTag
Description: (§1) FIGS. 1A-1B. Experimental workflow for the quantification of bioconjugation to UAA-bearing proteins expressed in cells. Following expression of the POI bearing a UAA at any surface position (e.g., A-E), the FIG. 1A) sTCO-chloroalkane ligand or FIG. 1B) sTCO-E3 ligase ligand, is added to the media and undergoes a selective bioconjugation with the UAA. Excess ligand is washed away and cells are FIG. 1A) lysed or FIG. 1B) incubated with sTCO-chloroalkane then lysed. The lysate is incubated with HaloTag protein and the bioconjugation is quantified via western blot.
(§2) Before comparing the degradation of different mCherry-EGFP mutants, validating the extent of bioconjugation to TetF at each position was required. A method for quantifying in cellulo protein bioconjugation that utilizes a strained trans-cyclooctene chloroalkane (sTCO-CA) to react with TetF and subsequently dimerize with the self-labeling enzyme, HaloTag, was previously […]. Using this technique, the extent of bioconjugation mCherry-EGFP-I129TetF (~90%) and mCherry-EGFP-G134TetF (~55%, FIG. 4D) was quantified. Bioconjugation to two new mCherry-EGFP-TetF mutants using the same method was also quantified (FIG. 7). […] By determining the extent of bioconjugation to TetF mutants across the surface of mCherry-EGFP, variations in degradation due to incomplete bioconjugation could be evaluated. […]

[7] = system: mCherry-EGFP-G134TetF; assay: as above; format: cell-based; conditions: sTCO-CA then HaloTag
Description: as §1, §2

## O=C1C(=Cc2ccccc2)C(NC2CCCCC2)c2ccccc21 (stereo not drawn) [BCI]
[1]
  inhibition of MKP3: known allosteric inhibitor
[2]
  inhibition of DUSP1: inhibits DUSP1

## CC(C)C[C@@H](C=O)NC(=O)[C@H](CC(C)C)NC(=O)[C@H](CC(C)C)NC(=O)OCc1ccccc1 [MG132] (Cbz-Leu-Leu-Leu-aldehyde)
[3]
  effect of proteasome inhibitor pre-treatment on sTCO-PEG2-CRBN induced degradation: reduced

## O=C1CCC(N2C(=O)c3cccc(O)c3C2=O)C(=O)N1 (stereo not drawn) [Thal-OH, thalidomide-OH]
[4]
  effect of thalidomide-OH pretreatment on sTCO-PEG2-CRBN degradation: reduced degradation

## OC1CC/C=C\CCC1 (stereo not drawn) [a]
[5]; Aqueous solvent, ax iso
  Second-order rate constant: 80200 M⁻¹ s⁻¹
[5]; Aqueous solvent, eq iso
  Second-order rate constant: 22600 M⁻¹ s⁻¹
[5]; Mixture (Org water) 90:10
  Second-order rate constant: 2000 (90:10)^Ref 5 M^−1s^−1
[5]; Organic solvent
  Second-order rate constant: 1140^Ref 5 M^−1s^−1

## OCC1[C@@H]2C/C=C\CCC[C@@H]12 (stereo partly drawn) [b]
[5]; Aqueous solvent
  Second-order rate constant: 3300000^Ref 2 M^−1s^−1
[5]; Organic solvent
  Second-order rate constant: 22000^Ref 3 M^−1s^−1

## OCC1O[C@H]2C/C=C\CCC[C@H]2O1 (stereo partly drawn) [c]
[5]; Aqueous solvent, anti iso
  Second-order rate constant: 318000 M⁻¹ s⁻¹
[5]; Aqueous solvent, syn iso
  Second-order rate constant: 366000 M⁻¹ s⁻¹
[5]; Mixture (Org water) 55:45
  Second-order rate constant: 167000 (55:45)^Ref 3 M^−1s^−1

## OCC1[C@@H]2CCC#CCC[C@@H]12 (stereo partly drawn) [d]
[5]; Mixture (Org water) 55:45
  Second-order rate constant: 1245 (55:45)^Ref 6 M^−1s^−1
[5]; Organic solvent
  Second-order rate constant: 45^Ref 4 M^−1s^−1

## CC[C@H](C)[C@H](NC(=O)[C@H]([C@@H](C)CC)N(C)C(C)=O)C(=O)N[C@H](C(=O)N[C@@H](CC(C)C)C(=O)[C@@]1(C)CO1)[C@@H](C)O [epoxomicin]
[3]
  effect of proteasome inhibitor pre-treatment on sTCO-PEG2-CRBN induced degradation: reduced

## O=C(O)CC1CC2C=CC1C2 (stereo not drawn) [h]
[5]; Aqueous solvent
  Second-order rate constant: 1.9^Ref 9 M^−1s^−1

## C=Cc1ccccc1 [j]
[5]; Mixture (Org water) 50:50
  Second-order rate constant: 0.05 (50:50)^Ref 11 M^−1s^−1

## C=CCSC[C@H](N)C(=O)O [m]
[5]; Mixture (Org water) 50:50
  Second-order rate constant: 0.002 (50:50)^Ref 13 M^−1s^−1

## O=C(NCCOCCOCCCCCCCl)OCC1C2CC/C=C/CCC21 (stereo not drawn) [sTCO-CA]
[6]
  extent of bioconjugation: ~ 90%
[7]
  extent of bioconjugation: ~ 55%
